Results: patent publication US20250382344A1, “Soluble GLP1/GIP/NPY2 Receptor Triple Agonists” (Boehringer Ingelheim International GmH, priority 2024, published 2025)
Read-outs that look alike come from different tables or passages of the source.

What was measured:
[1] = target: T1, hGIPR (Homo sapiens, UniProt P48546); test: hGIPR CreLuc assay in 0.5% and 100% plasma (CHO CRE-luciferase reporter cells); type: cell-based
T1 construct: expressed in transfected cells; host or cells: CHO CRE-luciferase reporter cells
T1 sequence (P48546 22-466): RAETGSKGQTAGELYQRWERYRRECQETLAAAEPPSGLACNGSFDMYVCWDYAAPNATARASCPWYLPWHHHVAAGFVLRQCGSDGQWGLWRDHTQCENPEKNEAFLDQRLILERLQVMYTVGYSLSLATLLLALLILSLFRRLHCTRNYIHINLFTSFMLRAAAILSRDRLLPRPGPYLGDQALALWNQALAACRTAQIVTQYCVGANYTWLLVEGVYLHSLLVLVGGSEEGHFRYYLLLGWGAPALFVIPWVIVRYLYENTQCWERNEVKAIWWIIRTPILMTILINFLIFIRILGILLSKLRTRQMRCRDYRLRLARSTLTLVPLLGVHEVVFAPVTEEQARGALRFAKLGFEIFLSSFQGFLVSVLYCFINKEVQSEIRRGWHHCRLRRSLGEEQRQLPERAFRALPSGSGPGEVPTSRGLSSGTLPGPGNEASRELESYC

[2] = target: T2, hNPY2R (Homo sapiens, UniProt P49146); test: hNPY2R CreLuc assay in 0.5% and 100% plasma (HEK-293 CRE-luciferase reporter cells); type: cell-based; details: HEK-293 reporter cells
T2 construct: expressed in transfected cells; host or cells: HEK-293 CRE-luciferase reporter cells
T2 sequence (P49146 1-381): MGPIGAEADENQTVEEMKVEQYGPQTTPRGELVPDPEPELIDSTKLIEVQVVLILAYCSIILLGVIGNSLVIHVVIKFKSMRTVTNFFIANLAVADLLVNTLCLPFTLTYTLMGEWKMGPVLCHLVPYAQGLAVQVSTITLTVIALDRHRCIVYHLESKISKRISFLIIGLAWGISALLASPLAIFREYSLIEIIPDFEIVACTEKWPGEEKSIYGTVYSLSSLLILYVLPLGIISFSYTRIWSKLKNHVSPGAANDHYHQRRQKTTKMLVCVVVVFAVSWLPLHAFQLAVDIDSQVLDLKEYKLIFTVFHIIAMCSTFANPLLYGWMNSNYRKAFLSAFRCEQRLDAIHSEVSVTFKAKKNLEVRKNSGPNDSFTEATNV

[3] = Solubility in 0.1 M phosphate buffer at pH 7; type: physicochemical; details: 0.1 M phosphate buffer at pH 7, 10 mg/mL final peptide concentration, shaking 2 hours at room temperature, peptides as TFA-salts; measured sample pH 6.5-7.0
[4] = 0.5% human plasma, read-out: hGIPR 0.5% hP
[5] = 100% human plasma, read-out: hNPY2R 100% hP
[6] = 0.5% human plasma, read-out: hNPY2R 0.5% hP

Q: Which EC50 [1, 4] does the source give for CC[C@H](C)[C@H](NC(=O)[C@H](CC(C)C)NC(=O)[C@H](Cc1c[nH]cn1)NC(=O)[C@H](CCCNC(=N)N)NC(=O)[C@@H](NC(=O)[C@H](Cc1ccccc1)NC(=O)[C@H](C)NC(=O)C(C)(C)NC(=O)[C@H](CCC(N)=O)NC(=O)[C@H](C)NC(=O)[C@H](CCC(N)=O)NC(=O)[C@H](CCCCN)NC(=O)[C@H](CCC(=O)O)NC(=O)[C@H](CC(C)C)NC(=O)C(C)(C)NC(=O)[C@@H](NC(=O)[C@H](CO)NC(=O)[C@H](Cc1ccc(O)cc1)NC(=O)[C@H](CC(=O)O)NC(=O)[C@H](CO)NC(=O)[C@@H](NC(=O)[C@H](Cc1ccccc1)NC(=O)[C@@H](NC(=O)CNC(=O)[C@H](CCC(=O)O)NC(=O)C(C)(C)NC(=O)[C@@H](N)Cc1ccc(O)cc1)[C@@H](C)O)[C@@H](C)O)[C@@H](C)CC)C(C)C)C(=O)N[C@@H](CC(N)=O)C(=O)N[C@@H](CCCCNC(=O)COCCOCCNC(=O)CC[C@H](NC(=O)CC[C@H](NC(=O)CC[C@H](NC(=O)CC[C@H](NC(=O)CC[C@H](NC(=O)CCCCCCCCCCCCCCCCC(=O)O)C(=O)O)C(=O)O)C(=O)O)C(=O)O)C(=O)O)C(=O)NC(C)(C)C(=O)N[C@H](C(=O)N[C@@H](CCCNC(=N)N)C(=O)N[C@@H](CCC(N)=O)C(=O)N[C@@H](CCCNC(=N)N)C(=O)N[C@@H](Cc1ccc(O)cc1)C(N)=O)[C@@H](C)O [Compound 140, Y-Aib-E-G-T-F-T-S-D-Y-S-I-Aib-L-E-K-Q-A-Q-Aib-A-F-V-R-H-L-I-N-K(1,3)-Aib-T-R-Q-R-Y-NH2.C18DA-gGlu-gGlu-gGlu-gGlu-gGlu-OEG(1,2)] here?
A: 0.2 nM

Q: And the EC50 ([1]; 100% human plasma, read-out: hGIPR 100% hP)?
A: 8 nM

Q: And the EC50 [2, 5]?
A: 141 nM

Q: What about the solubility at 2 h [3] of the same molecule?
A: 4900 µg/mL

Q: What does the source list for CC[C@H](C)[C@H](NC(=O)[C@H](CC(C)C)NC(=O)[C@H](Cc1c[nH]cn1)NC(=O)[C@H](CCCNC(=N)N)NC(=O)[C@@H](NC(=O)[C@H](Cc1ccccc1)NC(=O)[C@H](C)NC(=O)C(C)(C)NC(=O)[C@H](CCC(N)=O)NC(=O)[C@H](C)NC(=O)[C@H](CCC(N)=O)NC(=O)[C@H](CCCCN)NC(=O)[C@H](CCC(=O)O)NC(=O)[C@H](CC(C)C)NC(=O)C(C)(C)NC(=O)[C@@H](NC(=O)[C@H](CO)NC(=O)[C@H](Cc1ccc(O)cc1)NC(=O)[C@H](CC(=O)O)NC(=O)[C@H](CO)NC(=O)[C@@H](NC(=O)[C@H](Cc1ccccc1)NC(=O)[C@@H](NC(=O)CNC(=O)[C@H](CCC(=O)O)NC(=O)C(C)(C)NC(=O)[C@@H](N)Cc1ccc(O)cc1)[C@@H](C)O)[C@@H](C)O)[C@@H](C)CC)C(C)C)C(=O)N[C@@H](CC(N)=O)C(=O)N[C@@H](CCCCNC(=O)CCCCCNC(=O)CC[C@H](NC(=O)CC[C@H](NC(=O)CC[C@H](NC(=O)CC[C@H](NC(=O)CC[C@H](NC(=O)CC[C@H](NC(=O)CCCCCCCCCCCCCCCCCCC(=O)O)C(=O)O)C(=O)O)C(=O)O)C(=O)O)C(=O)O)C(=O)O)C(=O)NC(C)(C)C(=O)N[C@H](C(=O)N[C@@H](CCCNC(=N)N)C(=O)N[C@@H](CCC(N)=O)C(=O)N[C@@H](CCCNC(=N)N)C(=O)N[C@@H](Cc1ccc(O)cc1)C(N)=O)[C@@H](C)O [Compound 157, Y-Aib-E-G-T-F-T-S-D-Y-S-I-Aib-L-E-K-Q-A-Q-Aib-A-F-V-R-H-L-I-N-K(1,3)-Aib-T-R-Q-R-Y-NH2.C20DA-gGlu-gGlu-gGlu-gGlu-gGlu-gGlu-AHX(1,2)]?
A: EC50 [1, 4]: 0.2 nM; EC50 [2, 5]: 135 nM; solubility at 2 h [3]: 5200 µg/mL

Q: Which EC50 [1, 4] does the source give for CC[C@H](C)[C@H](NC(=O)[C@H](CC(C)C)NC(=O)[C@H](Cc1c[nH]cn1)NC(=O)[C@H](CCCNC(=N)N)NC(=O)[C@@H](NC(=O)[C@H](Cc1ccccc1)NC(=O)[C@H](C)NC(=O)C(C)(C)NC(=O)[C@H](CCC(=O)O)NC(=O)[C@H](C)NC(=O)[C@H](CCC(N)=O)NC(=O)[C@H](CCCCN)NC(=O)[C@H](CCC(=O)O)NC(=O)[C@H](CC(C)C)NC(=O)C(C)(C)NC(=O)[C@@H](NC(=O)[C@H](CO)NC(=O)[C@H](Cc1ccc(O)cc1)NC(=O)[C@H](CC(=O)O)NC(=O)[C@H](CO)NC(=O)[C@@H](NC(=O)[C@H](Cc1ccccc1)NC(=O)[C@@H](NC(=O)CNC(=O)[C@H](CCC(=O)O)NC(=O)C(C)(C)NC(=O)[C@@H](N)Cc1ccc(O)cc1)[C@@H](C)O)[C@@H](C)O)[C@@H](C)CC)C(C)C)C(=O)N[C@@H](CC(N)=O)C(=O)N[C@@H](CCCCNC(=O)[C@@H](N)CCCCNC(=O)CC[C@H](NC(=O)CC[C@H](NC(=O)COCCOCCNC(=O)CC[C@H](NC(=O)CC[C@H](NC(=O)CC[C@H](NC(=O)CCCCCCCCCCCCCCCCCCC(=O)O)C(=O)O)C(=O)O)C(=O)O)C(=O)O)C(=O)O)C(=O)NC(C)(C)C(=O)N[C@H](C(=O)N[C@@H](CCCNC(=N)N)C(=O)N[C@@H](CCC(N)=O)C(=O)N[C@@H](CCCNC(=N)N)C(=O)N[C@@H](Cc1ccc(O)cc1)C(N)=O)[C@@H](C)O [Compound 162, Y-Aib-E-G-T-F-T-S-D-Y-S-I-Aib-L-E-K-Q-A-E-Aib-A-F-V-R-H-L-I-N-K(1,3)-Aib-T-R-Q-R-Y-NH2.C20DA-gGlu-gGlu-gGlu-OEG-gGlu-gGlu-eLys(1,2)] here?
A: 0.7 nM

Q: What about the EC50 [2, 5] of the same molecule?
A: 43.8 nM

Q: What about the solubility at 2 h [3] of the same molecule?
A: 8700 µg/mL

Q: For CC[C@H](C)[C@H](NC(=O)[C@H](CO)NC(=O)[C@H](Cc1ccc(O)cc1)NC(=O)[C@H](CC(=O)O)NC(=O)[C@H](CO)NC(=O)[C@@H](NC(=O)[C@H](Cc1ccccc1)NC(=O)[C@@H](NC(=O)CNC(=O)[C@H](CCC(=O)O)NC(=O)C(C)(C)NC(=O)[C@@H](N)Cc1ccc(O)cc1)[C@@H](C)O)[C@@H](C)O)C(=O)N[C@@H](C)C(=O)N[C@@H](CC(C)C)C(=O)N[C@@H](CCC(=O)O)C(=O)N[C@@H](CCCCN)C(=O)N[C@@H](CCC(N)=O)C(=O)N[C@@H](C)C(=O)N[C@@H](CCC(N)=O)C(=O)NC(C)(C)C(=O)N[C@@H](C)C(=O)N[C@@H](Cc1ccccc1)C(=O)N[C@H](C(=O)N[C@@H](CCCNC(=N)N)C(=O)N[C@@H](Cc1c[nH]cn1)C(=O)N[C@@H](CC(C)C)C(=O)N[C@H](C(=O)N[C@@H](CC(N)=O)C(=O)N[C@@H](CCCCNC(=O)[C@@H](N)CCCCNC(=O)CC[C@H](NC(=O)CC[C@H](NC(=O)CC[C@H](NC(=O)CC[C@H](NC(=O)CC[C@H](NC(=O)CC[C@H](NC(=O)CCCCCCCCCCCCCCCCC(=O)O)C(=O)O)C(=O)O)C(=O)O)C(=O)O)C(=O)O)C(=O)O)C(=O)NC(C)(C)C(=O)N[C@H](C(=O)N[C@@H](CCCNC(=N)N)C(=O)N[C@@H](CCC(N)=O)C(=O)N[C@@H](CCCNC(=N)N)C(=O)N[C@@H](Cc1ccc(O)cc1)C(N)=O)[C@@H](C)O)[C@@H](C)CC)C(C)C [Compound 165, Y-Aib-E-G-T-F-T-S-D-Y-S-I-A-L-E-K-Q-A-Q-Aib-A-F-V-R-H-L-I-N-K(1,3)-Aib-T-R-Q-R-Y-NH2.C18DA-gGlu-gGlu-gGlu-gGlu-gGlu-gGlu-eLys(1,2)], which EC50 [1, 4] is on record?
A: 0.3 nM

Q: What about the EC50 [2, 6] of the same molecule?
A: 17.1 nM

Q: What about the solubility at 2 h [3] of the same molecule?
A: 5000 µg/mL

Q: Which EC50 [1, 4] does the source give for CC[C@H](C)[C@H](NC(=O)[C@H](CC(C)C)NC(=O)[C@H](Cc1c[nH]cn1)NC(=O)[C@H](CCCNC(=N)N)NC(=O)[C@@H](NC(=O)[C@H](Cc1ccccc1)NC(=O)[C@H](C)NC(=O)[C@H](CCC(=O)O)NC(=O)[C@H](CCC(N)=O)NC(=O)[C@H](C)NC(=O)[C@H](CCC(N)=O)NC(=O)[C@H](CCCCN)NC(=O)[C@H](CCC(=O)O)NC(=O)[C@H](CC(C)C)NC(=O)C(C)(C)NC(=O)[C@@H](NC(=O)[C@H](CO)NC(=O)[C@H](Cc1ccc(O)cc1)NC(=O)[C@H](CC(=O)O)NC(=O)[C@H](CO)NC(=O)[C@@H](NC(=O)[C@H](Cc1ccccc1)NC(=O)[C@@H](NC(=O)CNC(=O)[C@H](CCC(=O)O)NC(=O)C(C)(C)NC(=O)[C@@H](N)Cc1ccc(O)cc1)[C@@H](C)O)[C@@H](C)O)[C@@H](C)CC)C(C)C)C(=O)N[C@@H](CC(N)=O)C(=O)N[C@@H](CCCCNC(=O)[C@@H](N)CCCCNC(=O)CC[C@H](NC(=O)CC[C@H](NC(=O)CC[C@H](NC(=O)CC[C@H](NC(=O)CC[C@H](NC(=O)CC[C@H](NC(=O)CCCCCCCCCCCCCCCCC(=O)O)C(=O)O)C(=O)O)C(=O)O)C(=O)O)C(=O)O)C(=O)O)C(=O)NC(C)(C)C(=O)N[C@H](C(=O)N[C@@H](CCCNC(=N)N)C(=O)N[C@@H](CCC(N)=O)C(=O)N[C@@H](CCCNC(=N)N)C(=O)N[C@@H](Cc1ccc(O)cc1)C(N)=O)[C@@H](C)O [Compound 170, Y-Aib-E-G-T-F-T-S-D-Y-S-I-Aib-L-E-K-Q-A-Q-E-A-F-V-R-H-L-I-N-K(1,3)-Aib-T-R-Q-R-Y-NH2.C18DA-gGlu-gGlu-gGlu-gGlu-gGlu-gGlu-eLys(1,2)] here?
A: 0.4 nM

Q: And the EC50 [2, 6]?
A: 43.8 nM

Q: What about the solubility at 2 h [3] of the same molecule?
A: 4600 µg/mL
